Assay results published in patent US11566007B2, “Ras inhibitors” (Revolution Medicines, Inc., priority 2019, dated 2023).
“And” between values parts separate entries of the source, which are not always exact repeats. Identical values can stand only once. Like-named read-outs stand apart in the source and are kept apart here.

Experiments:
KRAS G12D = KRAS G12D (Homo sapiens (Human), UniProt P01116+P62937, G12D); test: Ras-Raf (BRAF RBD) disruption / FRET / MOA assay, KRAS G12D; assay type: biochemical; details: Ras-Raf disruption/FRET/MOA assay; class symbols; read-out: KRAS G12D FRET data IC50
Summary of the method: (§1)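 Compound-driven ternary complex of nucleotide-loaded Ras with cyclophilin A, disrupting BRAF RBD binding. 10-point 3-fold dilution from 30 μM final, 3 h at 25° C, then anti-His Eu-W1024 (10 nM) and anti-GST allophycocyanin (50 nM) for 1.5 h. IC50 from TR-FRET ratio decrease versus DMSO.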

[1] = test system: NCI-H358 cells (K-Ras G12C); test: Potency assay: pERK in NCI-H358 cells; assay type: cell-based, human; details: H358 KRAS G12C, read-out: pERK EC50
Summary of the method: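 4 h cpd, 37 °C; 10-pt 3-fold series, 10 mM DMSO top stock, duplicates. Readout pERK: AlphaLISA SureFire Ultra or In-Cell Western (IR-800CW secondary, DRAQ5 DNA stain). IC50, 4-PL fit vs log conc.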

NRAS Q61K = NRAS Q61K (Homo sapiens (Human), UniProt P01111+P62937, Q61K); test: Ras-Raf (BRAF RBD) disruption / FRET / MOA assay, NRAS Q61K; assay type: biochemical; details: NRAS Q61K; Ras-Raf disruption/FRET/MOA assay; read-out: IC50* NRAS Q61K FRET data
Description: (§2) The purpose of this biochemical assay is to measure the ability of test compounds to facilitate ternary complex formation between a nucleotide-loaded Ras isoform and cyclophilin A; the resulting ternary complex disrupts binding to a BRAF^RBD construct, inhibiting Ras signaling through a RAF effector.
(§3) […]. Compound is present in plate wells as a 10-point 3-fold dilution series starting at a final concentration of 30 μM. After incubation at 25° C. for 3 hours, a mixture of Anti-His Eu-W1024 and anti-GST allophycocyanin is then added to assay sample wells at final concentrations of 10 nM and 50 nM, respectively, and the reaction incubated for an additional 1.5 hours. […] Compounds that facilitate disruption of a Ras:RAF complex are identified as those eliciting a decrease in the TR-FRET ratio relative to DMSO control wells.
(§4) Note—The following protocol describes a procedure for monitoring disruption of K-Ras G12C (GMP-PNP) binding to BRAF^RBD by a compound of the invention. This protocol may also be executed substituting other Ras proteins or nucleotides.
(§5) The purpose of this biochemical assay was to measure the ability of test compounds to facilitate ternary complex formation between a nucleotide-loaded K-Ras isoform and Cyclophilin A; the resulting ternary complex disrupts binding to a BRAF^RBD construct, inhibiting K-Ras signaling through a RAF effector. Data is reported as IC50 values.
as §3, with “Compound was” for “Compound is”, “allophycocyanin was” for “allophycocyanin is”, “a K-Ras:RAF” for “a Ras:RAF”, “complex were” for “complex are”

KRAS Q61H = KRAS Q61H (Homo sapiens (Human), UniProt P01116+P62937, Q61H); test: Ras-Raf (BRAF RBD) disruption / FRET / MOA assay, KRAS Q61H; assay type: biochemical; details: Ras-Raf disruption/FRET/MOA assay; class symbols; read-out: KRAS Q61H FRET data IC50
Description: as §2, §3, §4, §5
as §3, with “Compound was” for “Compound is”, “allophycocyanin was” for “allophycocyanin is”, “a K-Ras:RAF” for “a Ras:RAF”, “complex were” for “complex are”

KRAS G13D = KRAS G13D (Homo sapiens (Human), UniProt P01116+P62937, G13D); test: Ras-Raf (BRAF RBD) disruption / FRET / MOA assay, KRAS G13D; assay type: biochemical; details: read-out: IC50* KRAS G13D FRET data
Summary of the method: as §1

NRAS WT = NRAS WT (Homo sapiens (Human), UniProt P01111+P62937); test: Ras-Raf (BRAF RBD) disruption / FRET / MOA assay, NRAS WT; assay type: biochemical; details: read-out: IC50* NRAS WT FRET data
Description: as §2, §3, §4, §5
as §3, with “Compound was” for “Compound is”, “allophycocyanin was” for “allophycocyanin is”, “a K-Ras:RAF” for “a Ras:RAF”, “complex were” for “complex are”

KRAS G12V = KRAS G12V (Homo sapiens (Human), UniProt P01116+P62937, G12V); test: Ras-Raf (BRAF RBD) disruption / FRET / MOA assay, KRAS G12V; assay type: biochemical; details: read-out: IC50* KRAS G12V FRET data
Summary of the method: as §1

KRAS G12S = KRAS G12S (Homo sapiens (Human), UniProt P01116+P62937, G12S); test: Ras-Raf (BRAF RBD) disruption / FRET / MOA assay, KRAS G12S; assay type: biochemical; details: Ras-Raf disruption/FRET/MOA assay; class symbols; read-out: KRAS G12S FRET data IC50
Summary of the method: as §1

NRAS G12C = NRAS G12C (Homo sapiens (Human), UniProt P01111+P62937, G12C); test: Ras-Raf (BRAF RBD) disruption / FRET / MOA assay, NRAS G12C; assay type: biochemical; details: read-out: IC50* NRAS G12C FRET data
Summary of the method: as §1

NRAS Q61R = NRAS Q61R (Homo sapiens (Human), UniProt P01111+P62937, Q61R); test: Ras-Raf (BRAF RBD) disruption / FRET / MOA assay, NRAS Q61R; assay type: biochemical; details: NRAS Q61R; Ras-Raf disruption/FRET/MOA assay; read-out: IC50* NRAS Q61R FRET data
Description: as §2, §3, §4, §5
as §3, with “Compound was” for “Compound is”, “allophycocyanin was” for “allophycocyanin is”, “a K-Ras:RAF” for “a Ras:RAF”, “complex were” for “complex are”

K-Ras G13C = K-Ras G13C (Homo sapiens (Human), UniProt P01116+P62937, G13C); test: Ras-Raf (BRAF RBD) disruption / FRET / MOA assay, KRAS G13C; assay type: biochemical; details: KRAS G13C; Ras-Raf disruption/FRET/MOA assay; read-out: IC50* KRAS G13C FRET data
Summary of the method: as §1

KRAS WT = KRAS WT (Homo sapiens (Human), UniProt P01116+P62937); test: Ras-Raf (BRAF RBD) disruption / FRET / MOA assay, KRAS WT; assay type: biochemical; details: read-out: IC50* KRAS WT FRET data
Summary of the method: as §1

NCI-H358 (K-Ras G12C) = test: CellTiter-Glo cell viability assay, NCI-H358; assay type: cell-based, human; details: NCI-H358, 5-day treatment; class symbols; read-out: Additional H358 Cell Viability assay data (K-Ras G12C, IC50)
Summary of the method: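 Viability of K-Ras mutant lines is measured by ATP luminescence after five days of compound treatment. Percent of DMSO control is calculated and dose-response data are fitted with a four-parameter logistic equation.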

K-Ras G12C = K-Ras G12C (Homo sapiens (Human), UniProt P01116+P62937, G12C); test: Ras-Raf (BRAF RBD) disruption / FRET / MOA assay, KRAS G12C; assay type: biochemical; details: KRAS G12C; Ras-Raf disruption/FRET/MOA assay; read-out: IC50* KRAS G12C FRET data
Summary of the method: as §1

Chain of KRAS G12D (P01116-2 other isoform, or with tags, fused parts or gaps G12D): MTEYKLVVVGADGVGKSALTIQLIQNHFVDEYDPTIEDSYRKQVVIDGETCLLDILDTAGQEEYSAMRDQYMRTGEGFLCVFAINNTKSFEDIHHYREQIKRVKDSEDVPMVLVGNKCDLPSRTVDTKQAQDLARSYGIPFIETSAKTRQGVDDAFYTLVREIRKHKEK
Chain of KRAS G12D (P62937 whole entry): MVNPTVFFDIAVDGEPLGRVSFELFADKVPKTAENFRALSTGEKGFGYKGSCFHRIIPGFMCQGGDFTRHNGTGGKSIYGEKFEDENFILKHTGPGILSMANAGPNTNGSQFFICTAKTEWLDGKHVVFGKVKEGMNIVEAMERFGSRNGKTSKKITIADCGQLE
Chain of KRAS G13D (P01116-2 other isoform, or with tags, fused parts or gaps G13D): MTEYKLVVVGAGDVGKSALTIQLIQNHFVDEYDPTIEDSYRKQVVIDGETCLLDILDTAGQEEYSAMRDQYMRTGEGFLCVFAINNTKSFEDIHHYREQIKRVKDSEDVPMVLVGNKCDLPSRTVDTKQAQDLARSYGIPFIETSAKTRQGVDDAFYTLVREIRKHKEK
Chain of KRAS G13D (P62937 whole entry): as the sequence (P62937 whole entry) above
Chain of NRAS Q61K (P01111 whole entry Q61K, canonical isoform): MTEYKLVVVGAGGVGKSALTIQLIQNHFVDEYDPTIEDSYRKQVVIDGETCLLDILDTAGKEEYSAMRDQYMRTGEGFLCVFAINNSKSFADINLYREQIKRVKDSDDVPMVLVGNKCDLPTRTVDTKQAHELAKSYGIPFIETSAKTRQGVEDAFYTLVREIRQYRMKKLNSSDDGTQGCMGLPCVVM
Chain of NRAS Q61K (P62937 whole entry, canonical isoform): as the sequence (P62937 whole entry) above
Chain of K-Ras G13C (P01116-2 other isoform, or with tags, fused parts or gaps G13C): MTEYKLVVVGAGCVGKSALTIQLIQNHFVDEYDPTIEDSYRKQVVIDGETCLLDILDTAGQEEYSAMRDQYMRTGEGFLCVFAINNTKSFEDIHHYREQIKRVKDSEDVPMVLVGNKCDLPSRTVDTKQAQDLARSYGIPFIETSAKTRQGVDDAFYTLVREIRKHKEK
Chain of K-Ras G13C (P62937 whole entry): as the sequence (P62937 whole entry) above
Chain of K-Ras G12C (P01116-2 other isoform, or with tags, fused parts or gaps G12C): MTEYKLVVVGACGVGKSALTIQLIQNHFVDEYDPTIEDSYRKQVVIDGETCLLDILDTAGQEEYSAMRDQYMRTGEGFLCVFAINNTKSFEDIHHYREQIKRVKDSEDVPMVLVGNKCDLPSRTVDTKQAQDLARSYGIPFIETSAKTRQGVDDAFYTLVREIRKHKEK
Chain of K-Ras G12C (P62937 whole entry): as the sequence (P62937 whole entry) above
Chain of KRAS G12S (P01116-2 other isoform, or with tags, fused parts or gaps G12S): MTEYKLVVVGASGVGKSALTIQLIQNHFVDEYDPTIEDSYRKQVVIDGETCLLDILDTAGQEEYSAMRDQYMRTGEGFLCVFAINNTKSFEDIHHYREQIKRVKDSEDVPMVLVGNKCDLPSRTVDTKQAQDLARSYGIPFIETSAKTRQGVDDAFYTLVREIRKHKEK
Chain of KRAS G12S (P62937 whole entry): as the sequence (P62937 whole entry) above
Chain of NRAS WT (P01111 whole entry): as the sequence (P01111 whole entry Q61K, canonical isoform) above, with K61Q counted along it
Chain of NRAS WT (P62937 whole entry): as the sequence (P62937 whole entry) above
Chain of KRAS G12V (P01116-2 other isoform, or with tags, fused parts or gaps G12V): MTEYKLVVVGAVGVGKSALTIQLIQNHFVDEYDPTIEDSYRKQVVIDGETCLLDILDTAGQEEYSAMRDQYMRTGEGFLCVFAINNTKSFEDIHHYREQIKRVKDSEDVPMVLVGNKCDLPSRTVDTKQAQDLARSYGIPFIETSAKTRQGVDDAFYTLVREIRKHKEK
Chain of KRAS G12V (P62937 whole entry): as the sequence (P62937 whole entry) above
Chain of NRAS Q61R (P01111 whole entry Q61R): as the sequence (P01111 whole entry Q61K, canonical isoform) above, with K61R counted along it
Chain of NRAS Q61R (P62937 whole entry): as the sequence (P62937 whole entry) above
Chain of KRAS Q61H (P01116-2 other isoform, or with tags, fused parts or gaps Q61H): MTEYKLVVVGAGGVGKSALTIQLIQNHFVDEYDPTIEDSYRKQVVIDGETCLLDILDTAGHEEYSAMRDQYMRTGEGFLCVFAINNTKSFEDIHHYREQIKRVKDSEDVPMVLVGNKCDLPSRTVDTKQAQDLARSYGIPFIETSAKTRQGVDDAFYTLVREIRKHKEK
Chain of KRAS Q61H (P62937 whole entry): as the sequence (P62937 whole entry) above
Chain of KRAS WT (P01116-2 other isoform, or with tags, fused parts or gaps): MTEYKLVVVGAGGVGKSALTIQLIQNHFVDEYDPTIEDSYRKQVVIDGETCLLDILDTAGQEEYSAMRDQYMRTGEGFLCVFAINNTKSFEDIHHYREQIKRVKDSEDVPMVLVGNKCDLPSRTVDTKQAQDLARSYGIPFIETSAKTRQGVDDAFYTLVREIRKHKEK
Chain of KRAS WT (P62937 whole entry): as the sequence (P62937 whole entry) above
Chain of NRAS G12C (P01111 whole entry G12C): as the sequence (P01111 whole entry Q61K, canonical isoform) above, with G12C, K61Q counted along it
Chain of NRAS G12C (P62937 whole entry): as the sequence (P62937 whole entry) above

SMILES | IC50 (KRAS G12D) | IC50 (NRAS Q61K) [µM] | IC50 (KRAS Q61H) [µM] | IC50 (KRAS G13D) | IC50 (NRAS WT) [µM] | IC50 (KRAS G12V) | IC50 (KRAS G12S) | IC50 (NRAS G12C) [µM] | IC50 (NRAS Q61R) [µM] | IC50 (K-Ras G13C) | IC50 (KRAS WT) | IC50 (NCI-H358 (K-Ras G12C)) [µM] | IC50 (K-Ras G12C) | EC50 ([1]; Homo sapiens, NCI-H358) [µM] | EC50 [1] [µM]
C=CC(=O)N1CC[C@H](C(=O)N(C)[C@H](C(=O)N[C@H]2Cc3cc(O)cc(c3)-c3ccc4c(c3)c(c(-c3cc(CN(C)C)cnc3[C@H](C)OC)n4CC)CC(C)(C)COC(=O)[C@@H]3CCCN(N3)C2=O)C(C)C)C1 (atropisomer, axis not shown) [Example A537] | 0.1 to 1 µM | 0.1 to 1 | 0.01 to 0.1 | 0.01 to 0.1 µM | 0.01 to 0.1 | 0.01 to 0.1 µM | 0.01 to 0.1 µM | < 0.01 | 0.1 to 1 | 0.01 to 0.1 µM | 0.01 to 0.1 µM |  |  |  | < 5
CCn1c(-c2cccnc2[C@H](C)OC)c2c3cc(ccc31)N1CCC[C@@H](C[C@H](NC(=O)[C@H](C(C)C)N(C)C(=O)C3(F)CCN(C(=O)C#CC(C)(C)N(C)C)CC3)C(=O)N3CCC[C@H](N3)C(=O)OCC(C)(C)C2)C1 (atropisomer, axis not shown) [Example A616] | > 10 µM |  | 1 to 10 | 1 to 10 µM | 1 to 10 | 1 to 10 µM | 1 to 10 µM | < 0.01 |  | 1 to 10 µM | 1 to 10 µM | < 0.01 |  |  | < 5
C=CC(=O)N1CC[C@H](C(=O)N(C)C(C(=O)N[C@H]2C[C@H]3CN(CCO3)c3ccc4c(c3)c(c(-c3cccnc3[C@H](C)OC)n4CC)CC(C)(C)COC(=O)[C@@H]3CCCN(N3)C2=O)C(C)C)C1 (mixture of isomers) [Example A507] | > 10 µM | > 10 | > 10 | > 10 µM | 1 to 10 | 1 to 10 µM | 1 to 10 µM | 0.1 to 1 | > 10 | 1 to 10 µM | > 10 µM |  | 0.1 to 1 µM |  | 

The next lines start with results.

IC50 (KRAS G12D) | IC50 (NRAS Q61K) [µM] | IC50 (KRAS Q61H) [µM] | IC50 (KRAS G13D) | IC50 (NRAS WT) [µM] | IC50 (KRAS G12V) | IC50 (KRAS G12S) | IC50 (NRAS G12C) [µM] | IC50 (NRAS Q61R) [µM] | IC50 (K-Ras G13C) | IC50 (KRAS WT) | IC50 (NCI-H358 (K-Ras G12C)) [µM] | IC50 (K-Ras G12C) | EC50 ([1]; Homo sapiens, NCI-H358) [µM] | SMILES | EC50 [1] [µM]
> 10 µM | 1 to 10 | 0.1 to 1 |  | 1 to 10 | 1 to 10 µM | 1 to 10 µM |  | 1 to 10 | 1 to 10 µM | 1 to 10 µM |  | 0.1 to 1 µM |  | C=CC(=O)N1CC[C@H](C(=O)N(C)[C@H](C(=O)N[C@H]2Cc3cc(O)cc(c3)-c3ccc4c(c3)c(c(-c3ccc(N5CCN(C)CC5)nc3)n4CC)CC(C)(C)COC(=O)[C@@H]3CCCN(N3)C2=O)C(C)C)C1 [Example A089] | 
1 to 10 µM and > 10 µM | 0.1 to 1 | 0.01 to 0.1 | 1 to 10 µM and > 10 µM | 0.1 to 1 | 0.1 to 1 µM and > 10 µM | 0.1 to 1 µM and > 10 µM |  | 0.1 to 1 | > 10 µM and 1 to 10 µM | 0.1 to 1 µM and > 10 µM |  | 0.01 to 0.1 µM and 1 to 10 µM | < 5 | C=CC(=O)N1CC[C@H](C(=O)N(C)[C@H](C(=O)N[C@H]2Cc3cc(O)cc(c3)-c3ccc4c(c3)c(c(-c3cccnc3)n4C(C)(C)C#N)CC(C)(C)COC(=O)[C@@H]3CCCN(N3)C2=O)C(C)C)C1 [Example A148] | 
